Source: ChEMBL document CHEMBL1154193, “Carbonic anhydrase II-induced selection of inhibitors from a dynamic combinatorial library of Schiff's bases” (Bioorg Med Chem Lett, 2009)
pKi: −log10 of the molar value.

Target: Carbonic anhydrase 2 (Homo sapiens, UniProt P00918)
Description: Inhibition of human carbonic anhydrase 2-catalyzed CO2 hydration by stopped flow technique

pKi: 6.15
SMILES: NS(=O)(=O)c1ccc(/N=C/c2ccc(O)cc2)cc1
